Measurements published in patent US20260132128A1, “COMPOUND FOR RECOVERING P53 MUTATION FUNCTION AND USE THEREOF” (SHENZHEN ZHONGGE BIOLOGICAL TECHNOLOGY CO., LTD., priority 2022, published 2026).
Marks after values point to notes of the source that are not given here.

Experiments:
p53 Y220C = biological target: T1, p53 Y220C (Homo sapiens, UniProt P04637, Y220C); assay: DNA binding test (HTRF): binding of P53Y220C protein to DNA; type: biochemical; conditions: multiple ratio of EC50 of the compound to the reference compound, DNA binding test
T1 construct: a truncated mutant containing only amino acids 94-312 of p53; made in house; host or cells: E. coli

NUGC-3 cells = assay: NUGC-3 cell proliferation assay (CTG); type: cell-based, human; conditions: for GI50: 6 days, CTG; for Compound GI50 (nM)/Reference compound GI50 (nM): multiple ratio of GI50 of the compound to the reference compound
Outline: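 NUGC-3 cells (250/well), plated overnight, were exposed 6 days at 37° C to compound, 10 doses of 1:3 dilutions from 10 μM top final. Viability by CellTiter-Glo luminescence; inhibition relative to 0.1% DMSO and blank, GI50 from variable-slope nonlinear fit.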

[1] = Caco-2 cell permeability test; type: in vitro ADME; conditions: human, pH 7.4, Caco-2, 10 μM; for Papp A→B at 120 min, 10 μM: A to B; for Papp B→A at 120 min, 10 μM: B to A
Protocol: Caco-2 cells (ATCC, Cat. No. HTB-37) were inoculated to a 96-well plate (Corning HTS Transwell, Cat. No. 3391) at 1.25×10^5/cm2, and the culture medium (DMEM+10% FBS+1% Penicillin-Streptomycin Liquid (100×)+1% NEAA) was replaced every 3 to 4 days. The plate was placed in an incubator at 37° C. with 5% CO2 until a confluent cell monolayer was formed after 21 to 28 days. Before the transport experiment, the culture medium was removed from the cell culture plate, and the plate was washed twice with pre-warmed HBSS buffer (10 mM HEPES, pH 7.4), and 100 μL of HBSS buffer was added to each well. After incubation at 37° C. for 30 minutes, the TEER value was measured using a cell resistance meter (Millicell-ERS2) to confirm the integrity and density of the monolayer cells. The HBSS buffer was discarded, the upper plate containing the cell monolayer membrane was transferred to the corresponding receiving plate, 10 mM test compound stock solution was diluted to a concentration of 10 μM with HBSS transport buffer containing 0.5% BSA, and it was added to the apical side (A side) and basolateral side (B side), respectively. Incubation was carried out for 120 min at 37° C., 5% CO2, and 95% relative humidity, and the permeation of the test compound from A side to B side or from B side to A side and the efflux rate of the compound were determined. The test compound and the reference compound were quantified by LC-MS/MS analysis based on the peak area ratio of analyte/internal standard. The apparent permeability coefficient Papp (cm/s) was calculated using the following formula:
[formula] • wherein, dCr/dt represented the functional relation between cumulative concentration of compound in receptor compartment and time; V represented the volume of solution in receptor compartment (0.1 mL at apical side, and 0.25 mL at basolateral side); A represented the transport surface area, i.e., the monolayer cell area was 0.0804 cm^2; CO represented the initial concentration of compound in donor compartment.
The efflux ratio was calculated using the following formula: […]
The percent recovery was calculated using the following formula:
[formula] [formula] • wherein, Vd represented the volume of donor compartment (0.1 mL on the apical side and 0.25 mL on the basolateral side); C and Cr represented the final concentrations of the transported compound in the donor and receptor compartment, respectively; Cc represented the compound concentration in cell lysate; Vc represented the volume of insert well (which was 0.1 mL in this experiment).

| efflux ratio at 120 min, 10 μM [1] | Papp A→B at 120 min, 10 μM [1] | Papp B→A at 120 min, 10 μM [1] | SMILES | Compound EC50 (nM)/Reference compound EC50 (nM) (p53 Y220C) | GI50 (NUGC-3 cells; Homo sapiens, NUGC-3, 144 h) | Compound GI50 (nM)/Reference compound GI50 (nM) (NUGC-3 cells) | GI50 (NUGC-3 cells) |
| --- | --- | --- | --- | --- | --- | --- | --- |
| 3.09 | 2.41 ×10⁻⁶ cm/s | 7.46 ×10⁻⁶ cm/s | CNC(=O)c1ccc(NCC#Cc2nc3c(NC4CC[C@@H](N5CC6(COC6)C5)C[C@@H]4F)cccn3c2CC(F)(F)F)c(OCF)c1 (stereo partly drawn) [Compound 58] | B (B: EC50 of the reference compound<EC50 of the compound≤3.0*EC50 of the reference compound) | < 1000 nM | B (B: GI50 of the reference compound < GI50 of the compound ≤ 3.0 * GI50 of the reference compound) | – |
| 4.31 | 2.66 ×10⁻⁶ cm/s | 11.4 ×10⁻⁶ cm/s | CNC(=O)c1ccc(NCC#Cc2nc3c(NC4CCC(N5CC6(COC6)C5)CC4F)cccn3c2CC(F)(F)F)c(OC)c1 (single isomer, unassigned) [Compound 35-6i] | B (B: EC50 of the reference compound<EC50 of the compound≤3.0*EC50 of the reference compound) | – | A (A: GI50 of the compound ≤ GI50 of the reference compound) | < 1000 nM |
| 1.22 | 4.92 ×10⁻⁶ cm/s | 5.99 ×10⁻⁶ cm/s | [2H]C([2H])([2H])NC(=O)c1ccc(NCC#Cc2nc3c(NC4CC[C@@H](N5CC6(COC6)C5)C[C@@H]4F)cccn3c2CC(F)(F)F)c(OC([2H])([2H])[2H])c1 (stereo partly drawn) [Compound 64] | B (B: EC50 of the reference compound<EC50 of the compound≤3.0*EC50 of the reference compound) | < 1000 nM | B (B: GI50 of the reference compound < GI50 of the compound ≤ 3.0 * GI50 of the reference compound) | – |

Further lines, the compound ahead of its results:

| SMILES | efflux ratio at 120 min, 10 μM [1] | Papp A→B at 120 min, 10 μM [1] | Papp B→A at 120 min, 10 μM [1] | Compound EC50 (nM)/Reference compound EC50 (nM) (p53 Y220C) | GI50 (NUGC-3 cells; Homo sapiens, NUGC-3, 144 h) | Compound GI50 (nM)/Reference compound GI50 (nM) (NUGC-3 cells) | GI50 (NUGC-3 cells) |
| --- | --- | --- | --- | --- | --- | --- | --- |
| CNC(=O)c1ccc(NCC#Cc2nc3c(N[C@@H]4CCN(C)C[C@@H]4F)cccn3c2CC(F)(F)F)c(OC)c1 [Compound 5] | 8.27 | 2.8 ×10⁻⁶ cm/s | 23.1 ×10⁻⁶ cm/s | B (B: EC50 of the reference compound<EC50 of the compound≤3.0*EC50 of the reference compound) | 1000 to 5000 nM | B (B: GI50 of the reference compound < GI50 of the compound ≤ 3.0 * GI50 of the reference compound) | – |
| [2H]C([2H])([2H])NC(=O)c1ccc(NCC#Cc2cc3c(NC4CCC(N5CC6(COC6)C5)CC4F)cccn3c2CC(F)(F)F)c(OC([2H])([2H])[2H])c1 (single isomer, unassigned) [Compound 74d] | – | – | – | A (A: EC50 of the compound≤EC50 of the reference compound) | < 1000 nM | A (A: GI50 of the compound ≤ GI50 of the reference compound) | – |
| COc1cc(C(=O)NC2CC2)ccc1NCC#Cc1nc2c(NC3CC[C@@H](N4CC5(COC5)C4)C[C@@H]3F)cccn2c1CC(F)(F)F (stereo partly drawn) [Compound 54] | 2.24 | 2.3 ×10⁻⁶ cm/s | 5.16 ×10⁻⁶ cm/s | B (B: EC50 of the reference compound<EC50 of the compound≤3.0*EC50 of the reference compound) | < 1000 nM | C (C: GI50 of the compound ≥ 3 * GI50 of the reference compound) | – |
